The text below walks through data of patent US11534398B2, “Inhaled preparation of isoglycyrrhizic acid or salt thereof, and use in preparing drugs for treating respiratory system diseases” (priority 2016, dated 2022).

“And” between values parts separate entries of the source, which are not always exact repeats. Equal entries are not always repeated. Where two headings read alike, the source gives them in different places. Marks after values point to notes of the source that are not given here.

Series [1] can be described thus: Particle size of micronized magnesium isoglycyrrhizinate. In kind it is physicochemical. The conditions noted are these: micronized active ingredient. An excerpt: The magnesium isoglycyrrhizinate was micronized to obtain samples having the following different particle size ranges.
For series [2], the system named is COPD rats. Kind of series: White blood cell count and cell classified comparison in blood of COPD rats. The class given is in vivo, SD rats. As for the experimental part:
(§1) After modeling chronic obstructive pulmonary disease model induced by cigarette smoke inhalation, male SD rats were randomly divided into 6 groups according to the body weight: high dose tracheal instillation group (1.67 mg/ml of magnesium isoglycyrrhizinate, 100 μl/rat), low dose tracheal instillation group (1.67 mg/ml, 25 μl/rat), aerosolizing inhalation group, model group and blank control group, 10 rats in each group. During the intervention period, except that the control group and the model group were given normal saline, the other groups were successive administered every day, lasted for 15 days. During the administration period, the administration groups continued to be given with smoke stimulation after 30 minutes of administration, and the mental state, breathing, activity, hair luster, weight gain of the rats were recorded every day. 12 hour after the last administration, whole blood was taken from the rat eye for determination of white blood cell count and cell classified comparison. […] The right lung was ligated at the right main branch, and the left lung was lavaged with normal saline 2 ml×3 times. The recovery rate was about 80%. The bronchoalveolar lavage fluid (BALF) was prepared for the determination of white blood cell count and classified comparison (white blood cells, neutrophils, lymphocytes and monocytes). Finally, the right lung of rat was fixed with 10% formalin and HE stained, lung injury was observed under microscope, and pathological lesions were scored. All scores were accumulated, and the average score of each animal in each group was calculated (mean±SD).
(§2) The experimental result data was expressed in the form of mean±SD. One-way ANOVA combined with Post-Hoc (LSD method) was used to analyze the differences between groups. Statistical significance was expressed as a P value of less than 0.05. The model group was compared with the blank control group, #p<0.05, #p<0.01; each administration group of magnesium isoglycyrrhizinate was compared with the model group, *p<0.05, **p<0.01.

Series [3] has as its system COPD rats. As to the kind of experiment: White blood cell count and cell classified comparison in BALF of COPD rats. The class given is in vivo, SD rats. The protocol:
as §1, §2

A short description of series [4]: Pharmacokinetic evaluation after inhalation/intragastric administration to rats. The conditions noted are these: for Cmax/Dose: in (µg/L)/(mg/kg); for AUC(0-t)/Dose: in (µg·h/L)/(mg/kg); for MRT last: read-out: MRT(0-t); for half-life: read-out: t½ z (converted). In kind it is in vivo, SD rats. The protocol: Eight healthy male SD rats, weighing 223-252 g, were fed with standard formula granule feed of rats on time every day. The rats were fasted for 16 h before the experiment, and were refeeded at 4 h after the administration. Drinking water was free before, after and during the experiment. The rats were randomly divided into two groups, 4 rats in each group, and each rat was inhalation administrated with a single dose of magnesium isoglycyrrhizinate liquid preparation for use in nebulizers (2.5 mg/mL) and intragastric administrated with magnesium isoglycyrrhizinate inhaled preparation (5.0 mg/mL, the amount of isoglycyrrhizic acid is 4.486 mg/mL) respectively. Each rat in the inhalation administration group was given 200 μL of magnesium isoglycyrrhizinate liquid preparation for use in nebulizers (the actual dose given to the rat was 2.24-2.49 mg/kg). The dose in the intragastric administration group was 10.0 mg/kg. 0.2-0.3 mL of blood was taken from the fundus venous plexus before administration (0 h) and 0.0833 h, 0.25 h, 0.5 h, 1 h, 2 h, 4 h, 6 h, 8 h, 10 h, 24 h after administration. EDTA-K2 was used for anticoagulation, and the plasma was centrifuged. Then 50 μL was accurately measured, added with 10 μL internal standard solution to vortex and mixed, then added with 200 μL methanol, and mixed in high speed vortex mixer for 3 min, centrifuged for 10 min (4° C., 13000 rpm). The supernatant was collected, and 100 μL thereof was transferred to a 96-well plate. 50 μL of ultrapure water was added, vortexed, LC-MS/MS was used for detection, and the chromatogram was recorded.

The conditions of series [5]: intravenous, 30.0 mg/kg, cited from earlier work.
Series [6] is described as follows: Body weight of COPD rats (cigarette smoke inhalation model). In kind it is in vivo, SD rats. The conditions noted are these: in g (unit assumed). As for the experimental part: as §1, §2
Series [7] has as its system COPD rats. Kind of series: Pathological score of lung of COPD rats (HE staining). In kind it is in vivo, SD rats. The arrangement: key to Pathological score, Comprehensive score / Pathological score, Emphysema / Pathological score, Inflammatory cell infiltration / Pathological score, Bronchial mucus secretion: lesion score 0 = none, 0.5 slight … 4 = very severe; group mean±SD. The protocol: as §1
Scoring indicators: (1) whether there was mucus and cell blockage in the small airway cavity; (2) whether the small airway epithelium had necrotic erosion; (3) small airway epithelial cells goblet cell metaplasia; (4) small airway epithelial cell squamous metaplasia; (5) small airway wall inflammation cell infiltration; (6) small airway wall fibrous connective tissue hyperplasia; (7) small airway wall smooth muscle hyperplasia; (8) small airway wall pigmentation; and (9) lung emphysema. Lesion score: according to the degree from light to heavy lesions, it was quantified as slight or very small amount for “0.5 point”, mild or small amount for “1 point”, moderate or more quantity amount for “2 points”, severe or plenty amount for “3 points”, very severe or large amount for “4 points”, and no obvious lesions for 0 point.
as §2

Series [8] has as its system COPD rats. Kind of series: General symptoms of COPD rats (cigarette smoke inhalation model). The class given is in vivo, SD rats. Particulars: high dose and low dose tracheal infusion and nebulization, versus model group. The protocol: as §1, with “The recovery rate was about 80%. The bronchoalveolar lavage fluid (BALF) was prepared for the determination of white blood cell count and classified comparison (white blood cells, neutrophils, lymphocytes and monocytes).” left out

The mark [9] stands for this setting: aerosolizing inhalation, 0.4 mg/ml, 30 min.
Where [10] appears, read: high dose tracheal instillation, 1.67 mg/ml, 100 μl.
Where [11] appears, read: low dose tracheal instillation, 1.67 mg/ml, 25 μl.
[12] abbreviates: male, SD, rat, plasma, inhaled or intranasal, inhalation, 2.4 mg/kg.
The mark [13] stands for this setting: male, SD, rat, plasma, po, intragastric, 10 mg/kg.

As for `CC1(C)[C@@H](O[C@H]2O[C@H](C(=O)[O-])[C@@H](O)[C@H](O)[C@H]2O[C@@H]2O[C@H](C(=O)[O-])[C@@H](O)[C@H](O)[C@H]2O)CC[C@]2(C)[C@H]3C(=O)C=C4[C@H]5C[C@@](C)(C(=O)O)CC[C@]5(C)CC[C@@]4(C)[C@]3(C)CC[C@@H]12.[Mg+2]` [Large particle size, magnesium isoglycyrrhizinate], in series [1], the X10 is on record as 1.47 μm and the X50 is reported as 5.75 μm.

As for `CC1(C)[C@@H](O[C@H]2O[C@H](C(=O)[O-])[C@@H](O)[C@H](O)[C@H]2O[C@@H]2O[C@H](C(=O)[O-])[C@@H](O)[C@H](O)[C@H]2O)CC[C@]2(C)[C@H]3C(=O)C=C4[C@H]5C[C@@](C)(C(=O)O)CC[C@]5(C)CC[C@@]4(C)[C@]3(C)CC[C@@H]12.[Mg+2]` [Medium particle size, magnesium isoglycyrrhizinate], in series [1], the X10 worked out at 1.38 μm and the X50 stood at 5.08 μm.

In series [1], `CC1(C)[C@@H](O[C@H]2O[C@H](C(=O)[O-])[C@@H](O)[C@H](O)[C@H]2O[C@@H]2O[C@H](C(=O)[O-])[C@@H](O)[C@H](O)[C@H]2O)CC[C@]2(C)[C@H]3C(=O)C=C4[C@H]5C[C@@](C)(C(=O)O)CC[C@]5(C)CC[C@@]4(C)[C@]3(C)CC[C@@H]12.[Mg+2]` [Small particle size, magnesium isoglycyrrhizinate] registered an X10 of 0.58 μm and an X50 of 2.03 μm.

For orientation: Cmax means the peak of the concentration-time curve. The AUC(0-inf) is the area under the concentration-time curve extrapolated to infinity. Broadly, the AUC(0-t) is exposure summed from dosing to a finite time, without extrapolation to infinity. In general, Tmax refers to the time from dosing to the highest level. For the molecule `CC1(C)[C@@H](O[C@H]2O[C@H](C(=O)[O-])[C@@H](O)[C@H](O)[C@H]2O[C@@H]2O[C@H](C(=O)[O-])[C@@H](O)[C@H](O)[C@H]2O)CC[C@]2(C)[C@H]3C(=O)C=C4[C@H]5C[C@@](C)(C(=O)O)CC[C@]5(C)CC[C@@]4(C)[C@]3(C)CC[C@@H]12.[Mg+2]` [magnesium isoglycyrrhizinate, magnesium (18α,20β)-20-carboxy-11-oxo-30-norolean-12-ene-3β-yl-2-O-β-D-pyranoglucuronyl-α-D-pyranoglucuronate], in series [2] (setting [9]), the Neutrophil count is 123.67 ± 23.24** 10/μl, the Percentage of neutrophils was 11.05 ± 1.61** % and the “White blood cell count” value was 1123.33 ± 170.54 10/μl. Further, in series [2] (setting [10]), the Neutrophil count is 153.25 ± 40.12* 10/μl, the Percentage of neutrophils is recorded as 11.31 ± 3.55* % and the “White blood cell count” value is recorded as 1395.13 ± 270.32 10/μl. In series [2] (setting [11]), the Neutrophil count is 155.13 ± 26.25* 10/μl, the Percentage of neutrophils is on record as 13.80 ± 2.24* % and the “White blood cell count” value is 1135.13 ± 155.73 10/μl. Also, in series [3] (setting [9]), the Neutrophil count is given as 57.83 ± 20.78 10/μl, the Percentage of neutrophils stood at 38.83 ± 21.02% and the “White blood cell count” value is 170.33 ± 55.17 10/μl. In series [3] (setting [10]), the Neutrophil count is given as 89.88 ± 21.57* 10/μl, the Percentage of neutrophils came out at 48.89 ± 9.69% and the “White blood cell count” value is 184.38 ± 32.15 10/μl. For the same molecule, in series [3] (setting [11]), the Neutrophil count is reported as 66.38 ± 25.46 10/μl, the Percentage of neutrophils is listed as 38.08 ± 12.86% and the “White blood cell count” value is on record as 172.50 ± 26.52 10/μl. For the same molecule, in series [4] (inhalation, 2.4 mg/kg), the CLz/F was 3.25 mL/min/kg and 3.25 ± 1.72 mL/min/kg; the t½ z was 2.13 ± 0.69 h; the Cmax/Dose is 1315 and 1315 ± 306; the “AUC(0-t)/Dose” value was 6108 and 6108 ± 2577. In series [4] (intragastric, 10 mg/kg), the CLz/F stood at 2700 mL/min/kg, the Cmax/Dose is 2.73 and the “AUC(0-t)/Dose” value is reported as 8.98. In series [4] (male, SD, rat, inhaled or intranasal, inhalation, liquid preparation for nebulizers 2.5 mg/mL, 200 μL, 2.4 mg/kg, plasma), this molecule registered a peak concentration (Cmax) of 3110 ng/mL. Further, in series [4] (setting [12]), the AUC(0-inf) was 14600 ng·h/mL, the area under the curve AUC(0-t) was 14600 ng·h/mL, the time of peak concentration (Tmax) stood at 0.81 h and the MRT last turned out to be 3.52 h. Besides, in series [4] (setting [12]), the half-life was 2.13 h. In series [4] (male, SD, rat, plasma, inhaled, inhalation compared with intravenous administration (literature), read-out: Relative F %), the bioavailability worked out at 87%. Further, in series [4] (setting [13]), the AUC(0-inf) was 102 ng·h/mL, the AUC(0-t) stood at 89.8 ng·h/mL, the time of peak concentration (Tmax) was 1.75 h and the MRT last came to 2.35 h. The half-life in series [4] (setting [13]) is 1.88 h. This molecule also had a Cmax in series [4] (male, SD, rat, po, intragastric, 5.0 mg/mL, 10 mg/kg, plasma) of 27.3 ng/mL. Also, the Cmax in series [5] (N = 6, literature) is 354500 ng/mL. In series [5] (literature), the exposure AUC(0-t) was 209591 ng·h/mL, the “AUC(0-t)/Dose” value is recorded as 6986, the “AUC(0-∞)” value was 212295 ng·h/mL and the CLz/F is 2355 mL/min/kg. Further, in series [5] (literature), the Cmax/Dose is reported as 11817, the “MRT(0-t)” value is 1.71 h, the Tmax was 5 min and the t1/2 z was 2.06 h. In addition, in series [6] (setting [9]), the “Body weight, End weight” value is 360.11 ± 18.84** and the “Body weight, Initial weight” value is 319.22 ± 10.43**. In series [6] (setting [10]), the “Body weight, End weight” value is on record as 358.20 ± 16.17** and the “Body weight, Initial weight” value is given as 324.6 ± 12.22**. For the same molecule, in series [6] (setting [11]), the “Body weight, End weight” value is recorded as 350.80 ± 27.79** and the “Body weight, Initial weight” value was 317.60 ± 24.23**. For the same molecule, in series [7] (setting [9]), the “Pathological score, Bronchial mucus secretion” value stood at 0.278 ± 0.363; the “Pathological score, Comprehensive score” value was 0.89 ± 0.65*; the “Pathological score, Emphysema” value came to 0.222 ± 0.441; the “Pathological score, Inflammatory cell infiltration” value is listed as 0.389 ± 0.333**. Moreover, in series [7] (setting [10]), the “Pathological score, Bronchial mucus secretion” value is 0.050 ± 0.158**; the “Pathological score, Comprehensive score” value is recorded as 0.90 ± 0.52*; the “Pathological score, Emphysema” value was 0.300 ± 0.422; the “Pathological score, Inflammatory cell infiltration” value is on record as 0.450 ± 0.550*. Moreover, the “Lung pathology of COPD rats (in words)” value in series [7] (high dose, low dose tracheal infusion and aerosolizing inhalation groups) was “significantly reduce lung inflammation, improve bronchial wall function, reduce bronchial mucus secretion and improve emphysema”. In addition, in series [7] (setting [11]), the “Pathological score, Bronchial mucus secretion” value was determined as 0.200 ± 0.350; the “Pathological score, Comprehensive score” value is recorded as 0.80 ± 0.50*; the “Pathological score, Emphysema” value was 0.150 ± 0.337; the “Pathological score, Inflammatory cell infiltration” value is reported as 0.400 ± 0.394**. Moreover, the “General symptoms of COPD rats” value in series [8] is reported as “relieved compared with the model group”.
